EC50 data for 30 compounds are collected here from patent US12486254B2, “Uracil derivatives for stimulating read-through of premature termination codons” (Southern Research Institute, priority 2022, dated 2025).

The experiment concerns W134X-CF#14 FRT. Put plainly: Read-through of a premature termination codon, W134X-CF#14 FRT data, with G418. The following applies: in presence of G418. Format: cell-based. The method, then:
The compounds shown in Table 1 were evaluated for their ability to stimulate read-through of a premature termination codon, and their respective activities are shown in Tables 2 and 3 below.

As usually defined, the EC50 is the concentration at which the effect is half-maximal. Take `CCn1c(=O)c(C(=O)CN2CCCCC2C(N)=O)c(N)n(Cc2cccc(C)c2)c1=O` (stereo not drawn) [1.119]: the half-maximal effective concentration (EC50) amounted to 13.3 µM. The same measure for `CC(C)N(CC(N)=O)CC(=O)c1c(N)n(Cc2ccccc2)c(=O)n(C)c1=O` [1.21]: 43.2 µM. As to `NC(=O)C1CCCCN1CC(=O)c1c(N)n(Cc2ccccc2F)c(=O)n(Cc2ccccc2F)c1=O` (stereo not drawn) [1.92], the 50% effective concentration (EC50) stood at 24.2 µM.

For `CCn1c(=O)c(C(=O)CNC2CCCCC2)c(N)n(Cc2ccccc2)c1=O` [1.13], the concentration giving a half-maximal response (EC50) was 174 µM. In the case of `CC[C@H]1CCCCN1CC(=O)c1c(N)n(Cc2ccc(F)cc2)c(=O)n(CC)c1=O` [1.199] it was 9.5 µM. In the case of `CCn1c(=O)c(C(=O)CN(CC(N)=O)C(C)C)c(N)n(Cc2ccc(F)cc2C)c1=O` [1.153] it was 64.8 µM; in that of `CCn1c(=O)c(C(=O)CN2CCCCC2C(=O)NCCc2ccccc2)c(N)n(Cc2ccccc2)c1=O` (stereo not drawn) [1.136], 8.25 µM. The same measure for `COc1cccc(Cn2c(N)c(C(=O)CN3CCCCC3C(N)=O)c(=O)n(Cc3cccc(OC)c3)c2=O)c1` (stereo not drawn) [1.116]: 23.9 µM.

On to `CCn1c(=O)c(C(=O)CN2CCCCC2C(=O)N(C(C)C)C(C)C)c(N)n(Cc2ccccc2)c1=O` (stereo not drawn) [1.88], for which the EC50 came out at 53.8 µM. As to `CCn1c(=O)c(C(=O)CN2CCCCC2C(N)=O)c(N)n(Cc2ccc(F)c(C)c2)c1=O` (stereo not drawn) [1.163], the EC50 stood at 8.05 µM. In the case of `CCn1c(=O)c(C(=O)CN(CC(=O)OC)C(C)C)c(N)n(Cc2ccc(F)cc2)c1=O` [1.213] it was 10.2 µM. In the case of `COc1ccccc1Cn1c(N)c(C(=O)CN2CCCCC2C(N)=O)c(=O)n(Cc2ccccc2OC)c1=O` (stereo not drawn) [1.110] it was 25 µM.

Turning to `CCN(CC(=O)c1c(N)n(Cc2ccccc2)c(=O)n(CC)c1=O)C(C(N)=O)C(C)C` (stereo not drawn) [1.77], the 50% effective concentration (EC50) stood at 31.2 µM.

As for `CCn1c(=O)c(C(=O)CN2CCCCC2C(=O)N2CCCC2)c(N)n(Cc2ccccc2)c1=O` (stereo not drawn) [1.85], the 50% effective concentration (EC50) was determined as 28.1 µM. Turning to `CCn1c(=O)c(C(=O)CN2CCCCC2C(=O)N2CCc3ccccc3C2)c(N)n(Cc2ccccc2)c1=O` (stereo not drawn) [1.141], the concentration for a half-maximal effect (EC50) is 12.9 µM. For `NC(=O)C1CCCCN1CC(=O)c1c(N)n(Cc2cccs2)c(=O)n(Cc2cccs2)c1=O` (stereo not drawn) [1.101], the EC50 is 12.8 µM. The same measure for `CCn1c(=O)c(C(=O)CN(C(C)C)C(C)C(N)=O)c(N)n(Cc2ccccc2)c1=O` (stereo not drawn) [1.71]: 70.4 µM. In the case of `CCn1c(=O)c(C(=O)CN2CCCCC2C(N)=O)c(N)n(Cc2cccc(F)c2)c1=O` (stereo not drawn) [1.134] it was 17.4 µM; in that of `CCn1c(=O)c(C(=O)CN2CCCCC2C(=O)NC(C)(C)C)c(N)n(Cc2ccccc2)c1=O` (stereo not drawn) [1.79], 49.3 µM; in that of `CCn1c(=O)c(C(=O)CN2CCCCC2C(N)=O)c(N)n(Cc2ccc(F)cc2OC)c1=O` (stereo not drawn) [1.154], 68.5 µM.

Turning to `CCn1c(=O)c(C(=O)CN(CC(N)=O)C(C)C)c(N)n(Cc2ccc(F)c(OC)c2)c1=O` [1.170], the EC50 is ≥ 100 µM.

Take `CCn1c(=O)c(C(=O)CN2CCCCC2C(=O)Nc2ccccc2)c(N)n(Cc2ccccc2)c1=O` (stereo not drawn) [1.97]: the EC50 is 62.5 µM.

Take `CCN(CC)C(=O)C1CCCN1CC(=O)c1c(N)n(Cc2ccccc2)c(=O)n(CC)c1=O` (stereo not drawn) [1.99]: the half-maximal effective concentration (EC50) was found to be 28.3 µM. In the case of `CCn1c(=O)c(C(=O)CN2CCCC[C@@H]2C(=O)NCc2ccccc2F)c(N)n(Cc2ccccc2)c1=O` [1.142] it was 13.1 µM. In the case of `CC1Cc2ccccc2N1CC(=O)c1c(N)n(Cc2ccccc2)c(=O)n(C)c1=O` (stereo not drawn) [1.61] it was 32.3 µM; in that of `CCn1c(=O)c(C(=O)CN2CCCCC2C(N)=O)c(N)n(Cc2ccc(F)cc2Cl)c1=O` (stereo not drawn) [1.173], 42.1 µM. In the case of `CCn1c(=O)c(C(=O)CN2CCN(C(=O)OC(C)(C)C)CC2C(N)=O)c(N)n(Cc2ccccc2)c1=O` (stereo not drawn) [1.52] it was ≥ 100 µM; in that of `CCn1c(=O)c(C(=O)CN2CCCC2c2cccn2C)c(N)n(Cc2ccccc2)c1=O` (stereo not drawn) [1.63], 79.9 µM; in that of `CCn1c(=O)c(C(=O)CN2CCCC2C(=O)N(C)C)c(N)n(Cc2ccccc2)c1=O` (stereo not drawn) [1.98], 43.1 µM.

For the compound `CCn1c(=O)c(C(=O)CNc2cccc(C(N)=O)c2)c(N)n(Cc2ccc(F)cc2)c1=O` [1.208], the 50% effective concentration (EC50) was 11.4 µM.
